Laboratory results taken from patent US20230398130A1, “METHODS AND COMPOSITIONS FOR DIFFERENTIATING STEM CELLS” (Massachusetts Institute of Technology, priority 2020, published 2023).

Columns and labels:
[1] = tested on: ISC-enriched organoids; assay: Primary screen, 384-well 2.5-D organoid differentiation (ENR+CD, 6 days, Target Selective Inhibitor Library, vs whole-plate median): ATP (CellTiter-Glo 3D, CTG); conditions: primary screen; for Dose.FC.CTG: FC vs plate median; for Z.CTG: standard z score; for SSMD.CTG: strictly standardized mean difference
[2] = tested on: ISC-enriched organoids; assay: Primary screen, 384-well 2.5-D organoid differentiation (ENR+CD, 6 days): basal lysozyme secretion (LYZ.NS); type: cell-based, murine; conditions: primary screen; for Dose.FC.LYZ.NS: FC vs plate median; for Z.LYZ.NS: standard z score; for SSMD.LYZ.NS: strictly standardized mean difference
Excerpt: (§1) High-throughput screening.

[3] = tested on: ISC-enriched organoids; assay: Primary screen, 384-well 2.5-D organoid differentiation (ENR+CD, 6 days): carbachol-induced lysozyme secretion (LYZ.S); type: cell-based, murine; conditions: primary screen; for Dose.FC.LYZ.S: FC vs plate median; for Z.LYZ.S: standard z score; for SSMD.LYZ.S: strictly standardized mean difference
Excerpt: as §1

[4] = 1st of the 4 dose lines of the treatment (dose not given)
[5] = 2nd of the 4 dose lines of the treatment (dose not given)
[6] = 3rd of the 4 dose lines of the treatment (dose not given)
[7] = 4th of the 4 dose lines of the treatment (dose not given)

| Structure (SMILES) | Z.CTG ([1]; Dose 0.08 uM) | Z.CTG ([1]; Dose 0.40 uM) | Z.CTG ([1]; Dose 2.00 uM) | Z.CTG ([1]; Dose 10.00 uM) | SSMD.CTG [1, 4] | SSMD.CTG [1, 5] | SSMD.CTG [1, 6] | SSMD.CTG [1, 7] | SSMD.LYZ.NS [2, 4] | SSMD.LYZ.NS [2, 5] | SSMD.LYZ.NS [2, 6] | SSMD.LYZ.NS [2, 7] | Z.LYZ.S [3, 4] | Z.LYZ.S [3, 5] | Z.LYZ.S [3, 6] | Z.LYZ.S [3, 7] | SSMD.LYZ.S [3, 4] | SSMD.LYZ.S [3, 5] | SSMD.LYZ.S [3, 6] | SSMD.LYZ.S [3, 7] | also measured |
| --- | --- | --- | --- | --- | --- | --- | --- | --- | --- | --- | --- | --- | --- | --- | --- | --- | --- | --- | --- | --- | --- |
| c1cc(-c2cnn3cc(-c4ccc(N5CCNCC5)cc4)cnc23)c2cccnc2c1 [LDN-212854] | 0.568 | 0.309 | −1.134 | −3.018 | 0.686 | 0.242 | −1.244 | −1.589 | 0.567 | 0.395 | −1.438 | −1.649 | 1.050 | 0.167 | −1.888 | −2.582 | 0.799 | 0.136 | −1.525 | −1.672 | Dose.FC.CTG ([1]; Dose 0.08 uM): 0.238 log 2 fold change; Dose.FC.CTG ([1]; Dose 0.40 uM): 0.129 log 2 fold change; Dose.FC.CTG ([1]; Dose 2.00 uM): −0.475 log 2 fold change; Dose.FC.CTG ([1]; Dose 10.00 uM): −1.263 log 2 fold change; Dose.FC.LYZ.NS ([2]; Dose 0.08 uM): 0.095 log 2 fold change; Z.LYZ.NS ([2]; Dose 0.08 uM): 0.823; Dose.FC.LYZ.NS ([2]; Dose 0.40 uM): 0.051 log 2 fold change; Z.LYZ.NS ([2]; Dose 0.40 uM): 0.446; Dose.FC.LYZ.NS ([2]; Dose 2.00 uM): −0.217 log 2 fold change; Z.LYZ.NS ([2]; Dose 2.00 uM): −1.885; Dose.FC.LYZ.NS ([2]; Dose 10.00 uM): −0.273 log 2 fold change; Z.LYZ.NS ([2]; Dose 10.00 uM): −2.375; Dose.FC.LYZ.S ([3]; Dose 0.08 uM): 0.162 log 2 fold change; Dose.FC.LYZ.S ([3]; Dose 0.40 uM): 0.026 log 2 fold change; Dose.FC.LYZ.S ([3]; Dose 2.00 uM): −0.292 log 2 fold change; Dose.FC.LYZ.S ([3]; Dose 10.00 uM): −0.399 log 2 fold change |
| C[C@H](NC(=O)[C@@H](O)c1cc(F)cc(F)c1)C(=O)N[C@@H]1C(=O)N(C)c2ccccc2-c2ccccc21 [LY411575] | 0.083 | −0.411 | −0.412 | −0.618 | 0.086 | −0.312 | −0.389 | −0.550 | 0.217 | −0.432 | −0.593 | −0.931 | 0.155 | 0.266 | −0.590 | −1.015 | 0.094 | 0.171 | −0.596 | −0.917 | Dose.FC.CTG ([1]; Dose 0.08 uM): 0.035 log 2 fold change; Dose.FC.CTG ([1]; Dose 0.40 uM): −0.172 log 2 fold change; Dose.FC.CTG ([1]; Dose 2.00 uM): −0.172 log 2 fold change; Dose.FC.CTG ([1]; Dose 10.00 uM): −0.259 log 2 fold change; Dose.FC.LYZ.NS ([2]; Dose 0.08 uM): 0.040 log 2 fold change; Z.LYZ.NS ([2]; Dose 0.08 uM): 0.347; Dose.FC.LYZ.NS ([2]; Dose 0.40 uM): −0.050 log 2 fold change; Z.LYZ.NS ([2]; Dose 0.40 uM): −0.434; Dose.FC.LYZ.NS ([2]; Dose 2.00 uM): −0.069 log 2 fold change; Z.LYZ.NS ([2]; Dose 2.00 uM): −0.598; Dose.FC.LYZ.NS ([2]; Dose 10.00 uM): −0.109 log 2 fold change; Z.LYZ.NS ([2]; Dose 10.00 uM): −0.949; Dose.FC.LYZ.S ([3]; Dose 0.08 uM): 0.024 log 2 fold change; Dose.FC.LYZ.S ([3]; Dose 0.40 uM): 0.041 log 2 fold change; Dose.FC.LYZ.S ([3]; Dose 2.00 uM): −0.091 log 2 fold change; Dose.FC.LYZ.S ([3]; Dose 10.00 uM): −0.157 log 2 fold change |
| Cc1cccc(-c2nn3c(c2-c2ccnc4ccc(C(N)=O)cc24)CCC3)n1 [LY2157299] | 0.218 | 0.328 | 0.041 | 0.226 | 0.343 | 0.369 | 0.048 | 0.314 | 0.656 | 0.737 | 0.827 | 1.243 | 1.209 | 1.287 | 0.731 | 1.441 | 1.145 | 1.157 | 0.808 | 1.219 | Dose.FC.CTG ([1]; Dose 0.08 uM): 0.091 log 2 fold change; Dose.FC.CTG ([1]; Dose 0.40 uM): 0.137 log 2 fold change; Dose.FC.CTG ([1]; Dose 2.00 uM): 0.017 log 2 fold change; Dose.FC.CTG ([1]; Dose 10.00 uM): 0.095 log 2 fold change; Dose.FC.LYZ.NS ([2]; Dose 0.08 uM): 0.227 log 2 fold change; Z.LYZ.NS ([2]; Dose 0.08 uM): 1.973; Dose.FC.LYZ.NS ([2]; Dose 0.40 uM): 0.140 log 2 fold change; Z.LYZ.NS ([2]; Dose 0.40 uM): 1.221; Dose.FC.LYZ.NS ([2]; Dose 2.00 uM): 0.092 log 2 fold change; Z.LYZ.NS ([2]; Dose 2.00 uM): 0.799; Dose.FC.LYZ.NS ([2]; Dose 10.00 uM): 0.162 log 2 fold change; Z.LYZ.NS ([2]; Dose 10.00 uM): 1.408; Dose.FC.LYZ.S ([3]; Dose 0.08 uM): 0.187 log 2 fold change; Dose.FC.LYZ.S ([3]; Dose 0.40 uM): 0.199 log 2 fold change; Dose.FC.LYZ.S ([3]; Dose 2.00 uM): 0.113 log 2 fold change; Dose.FC.LYZ.S ([3]; Dose 10.00 uM): 0.223 log 2 fold change |
| CC(C)(C)Cn1c(N)nc2ccc(-c3[nH]c(C(C)(C)C)nc3-c3ccc(F)cc3)nc21 [LY2228820] | −0.715 | −0.812 | −0.810 | −0.793 | −0.908 | −0.614 | −0.794 | −0.937 | 0.186 | −0.798 | 0.123 | −1.170 | −0.107 | −0.348 | −0.844 | −1.062 | −0.087 | −0.344 | −0.692 | −1.268 | Dose.FC.CTG ([1]; Dose 0.08 uM): −0.299 log 2 fold change; Dose.FC.CTG ([1]; Dose 0.40 uM): −0.340 log 2 fold change; Dose.FC.CTG ([1]; Dose 2.00 uM): −0.339 log 2 fold change; Dose.FC.CTG ([1]; Dose 10.00 uM): −0.332 log 2 fold change; Dose.FC.LYZ.NS ([2]; Dose 0.08 uM): 0.065 log 2 fold change; Z.LYZ.NS ([2]; Dose 0.08 uM): 0.569; Dose.FC.LYZ.NS ([2]; Dose 0.40 uM): −0.100 log 2 fold change; Z.LYZ.NS ([2]; Dose 0.40 uM): −0.874; Dose.FC.LYZ.NS ([2]; Dose 2.00 uM): 0.043 log 2 fold change; Z.LYZ.NS ([2]; Dose 2.00 uM): 0.377; Dose.FC.LYZ.NS ([2]; Dose 10.00 uM): −0.126 log 2 fold change; Z.LYZ.NS ([2]; Dose 10.00 uM): −1.099; Dose.FC.LYZ.S ([3]; Dose 0.08 uM): −0.017 log 2 fold change; Dose.FC.LYZ.S ([3]; Dose 0.40 uM): −0.054 log 2 fold change; Dose.FC.LYZ.S ([3]; Dose 2.00 uM): −0.130 log 2 fold change; Dose.FC.LYZ.S ([3]; Dose 10.00 uM): −0.164 log 2 fold change |
| Cc1cnc(NC(=O)Nc2cc(Br)c(C)cc2OC[C@@H]2CNCCO2)cn1 [LY2603618] | −0.010 | −0.567 | −0.946 | −2.347 | −0.013 | −0.880 | −1.281 | −2.490 | −0.044 | −0.697 | −1.609 | −1.826 | 0.056 | −0.953 | −1.737 | −2.300 | 0.065 | −0.885 | −1.421 | −1.890 | Dose.FC.CTG ([1]; Dose 0.08 uM): −0.004 log 2 fold change; Dose.FC.CTG ([1]; Dose 0.40 uM): −0.238 log 2 fold change; Dose.FC.CTG ([1]; Dose 2.00 uM): −0.396 log 2 fold change; Dose.FC.CTG ([1]; Dose 10.00 uM): −0.983 log 2 fold change; Dose.FC.LYZ.NS ([2]; Dose 0.08 uM): −0.005 log 2 fold change; Z.LYZ.NS ([2]; Dose 0.08 uM): −0.046; Dose.FC.LYZ.NS ([2]; Dose 0.40 uM): −0.091 log 2 fold change; Z.LYZ.NS ([2]; Dose 0.40 uM): −0.791; Dose.FC.LYZ.NS ([2]; Dose 2.00 uM): −0.193 log 2 fold change; Z.LYZ.NS ([2]; Dose 2.00 uM): −1.685; Dose.FC.LYZ.NS ([2]; Dose 10.00 uM): −0.233 log 2 fold change; Z.LYZ.NS ([2]; Dose 10.00 uM): −2.026; Dose.FC.LYZ.S ([3]; Dose 0.08 uM): 0.009 log 2 fold change; Dose.FC.LYZ.S ([3]; Dose 0.40 uM): −0.147 log 2 fold change; Dose.FC.LYZ.S ([3]; Dose 2.00 uM): −0.269 log 2 fold change; Dose.FC.LYZ.S ([3]; Dose 10.00 uM): −0.356 log 2 fold change |
| Cc1cc(Nc2cc(CN3CCOCC3)c3nc(C)c(Cc4ccc(Cl)cc4F)n3n2)n[nH]1 [LY2784544] | 0.259 | 0.148 | 0.433 | −1.984 | 0.378 | 0.135 | 0.500 | −1.283 | 0.395 | 0.037 | 0.582 | −2.015 | 0.794 | 0.498 | 0.737 | −2.373 | 0.911 | 0.595 | 0.492 | −2.074 | Dose.FC.CTG ([1]; Dose 0.08 uM): 0.108 log 2 fold change; Dose.FC.CTG ([1]; Dose 0.40 uM): 0.062 log 2 fold change; Dose.FC.CTG ([1]; Dose 2.00 uM): 0.181 log 2 fold change; Dose.FC.CTG ([1]; Dose 10.00 uM): −0.831 log 2 fold change; Dose.FC.LYZ.NS ([2]; Dose 0.08 uM): 0.132 log 2 fold change; Z.LYZ.NS ([2]; Dose 0.08 uM): 1.152; Dose.FC.LYZ.NS ([2]; Dose 0.40 uM): 0.004 log 2 fold change; Z.LYZ.NS ([2]; Dose 0.40 uM): 0.033; Dose.FC.LYZ.NS ([2]; Dose 2.00 uM): 0.068 log 2 fold change; Z.LYZ.NS ([2]; Dose 2.00 uM): 0.591; Dose.FC.LYZ.NS ([2]; Dose 10.00 uM): −0.280 log 2 fold change; Z.LYZ.NS ([2]; Dose 10.00 uM): −2.439; Dose.FC.LYZ.S ([3]; Dose 0.08 uM): 0.123 log 2 fold change; Dose.FC.LYZ.S ([3]; Dose 0.40 uM): 0.077 log 2 fold change; Dose.FC.LYZ.S ([3]; Dose 2.00 uM): 0.114 log 2 fold change; Dose.FC.LYZ.S ([3]; Dose 10.00 uM): −0.367 log 2 fold change |
| O=C(C[S+]([O-])Cc1ccco1)NC/C=C\COc1cc(CN2CCCCC2)ccn1 (centres unmarked) [Lafutidine] | 0.363 | 0.346 | 0.329 | −0.235 | 0.452 | 0.476 | 0.505 | −0.249 | 0.285 | 0.064 | 0.359 | 0.581 | 0.339 | 0.506 | 0.491 | −0.093 | 0.331 | 0.460 | 0.503 | −0.111 |  |
